Experiments:
[1] = tested on: HeLa (cervical cancer) cells; assay: MTT cytotoxicity assay, HeLa; type: cell-based; conditions: 72 h
Procedure: (§1) All tested compounds were dissolved in DMSO at a final concentration of 50 mmol/L and stored at −20°C before use. Cytotoxicity was assessed by using the 3-(4,5-dimethylthiazol-2-yl)-2, 5-diphenyltetrazolium bromide (MTT) (5.0 mg/ml) assay as previously described. Briefly, 4×10^3 cells per well were seeded in 96-well plates before drug treatments. After overnight culture, the cells were then exposed to different concentrations of selected compounds ([…]) for 72 hours. Cells without drug treatment were used as control. Subsequently, MTT (10 μL) solution was added to each well and incubated at 37°C for 4 hours followed by the addition of 100 μL solubilization buffer (10%SDS in 0.01 mol/L HCl) and overnight incubation. A570 nm was then determined in each well on the next day. The percentage of cell viability was calculated using the following formula: Cell viability (%) = Atreated/Acontrol × 100. Data were obtained from three independent experiments.

[2] = tested on: MCF-7 (breast cancer) cells; assay: MTT cytotoxicity assay, MCF-7; type: cell-based; conditions: MCF-7, MTT, 72 h
Procedure: as §1

[3] = tested on: H1299 (lung cancer) cells; assay: MTT cytotoxicity assay, H1299; type: cell-based, human; conditions: 72 h
Procedure: as §1

[4] = tested on: H1975 (EGFR mutant lung cancer) cells; assay: MTT cytotoxicity assay, H1975; type: cell-based; conditions: 72 h
Procedure: as §1

[5] = tested on: A549 (EGFR wild-type lung cancer) cells; assay: MTT cytotoxicity assay, A549; type: cell-based; conditions: 72 h
Procedure: as §1

[6] = tested on: LLC-1 (mouse lung cancer) cells; assay: MTT cytotoxicity assay, LLC-1; type: cell-based; conditions: LLC-1, MTT, 72 h
Procedure: as §1

[7] = tested on: HepG2 (liver cancer) cells; assay: MTT cytotoxicity assay, HepG2; type: cell-based; conditions: 72 h
Procedure: as §1

[8] = tested on: Hep3B (liver cancer) cells; assay: MTT cytotoxicity assay, Hep 3B; type: cell-based; conditions: 72 h
Procedure: as §1

[9] = tested on: normal human LO2 hepatocytes; assay: MTT cytotoxicity assay, LO2; type: cell-based; conditions: 72 h
Procedure: as §1

[10] = tested on: MCF-7 taxol-sensitive cancer cells; assay: MTT cytotoxicity, taxol-sensitive MCF-7; type: cell-based; conditions: 72 h
From the text: (§2) All cells were obtained from the American Type Culture Collection (Rockville, MD, USA) unless otherwise specified. Immortalized wild-type and Atg7-deficient mouse embryonic fibroblasts (MEFs) were kindly provided by Professor Masaaki Komatsu (Juntendo University, School of Medicine, Japan). Taxol-resistant types of MCF-7, HCT-8, A549 cancers cells and cisplatin-resistant SGC7901 cancer cells were purchased from KeyGEN BioTECH, China. Cisplatin-sensitive or –resistant A2780, OV2008 and C13 cancer cells were kindly provided by Prof. Benjamin Tsang (Department of Obstetrics and Gynecology and Department of Cellular and Molecular Medicine, University of Ottawa, Canada). HCT116 p53^+/+ and p53^−/− isogenic human colon cancer cells were kindly provided by Professor Bert Vogelstein (Ludwig Center at Johns Hopkins, Howard Hughes Medical Institute, USA). All media were supplemented with 10% fetal bovine serum and antibiotics penicillin (50 U/ml) and streptomycin (50 μg/ml; Invitrogen, Paisley, Scotland, UK). All cell cultures were incubated at 37°C in a 5% humidified CO2 incubator.
as §1

[11] = tested on: HCT-8 taxol-resistant cancer cells; assay: MTT cytotoxicity, taxol-resistant HCT-8; type: cell-based
From the text: as §2, §1

[12] = tested on: A549 taxol-sensitive cancer cells; assay: MTT cytotoxicity, taxol-sensitive A549; type: cell-based; conditions: 72 h
From the text: as §2, §1

[13] = tested on: A549 taxol-resistant cancer cells; assay: MTT cytotoxicity, taxol-resistant A549; type: cell-based
From the text: as §2, §1

[14] = tested on: A2780 cisplatin-resistant cancer cells; assay: MTT cytotoxicity, cisplatin-resistant A2780; type: cell-based
From the text: as §2, §1

[15] = tested on: SGC-7901 cisplatin-sensitive cancer cells; assay: MTT cytotoxicity, cisplatin-sensitive SGC-7901; type: cell-based; conditions: 72 h
From the text: as §2, §1

[16] = tested on: OV2008 (cisplatin-sensitive) cells; assay: MTT cytotoxicity, OV2008 (cisplatin-sensitive); type: cell-based; conditions: 72 h, read-out: IC50 value, cisplatin-sensitive cancer, OV2008
From the text: as §2, §1

[17] = tested on: C13 (cisplatin-resistant) cells; assay: MTT cytotoxicity, C13 (cisplatin-resistant); type: cell-based
From the text: as §2, §1

[18] = tested on: HCT116 p53^+/+ colon cancer cells; assay: MTT cytotoxicity, HCT116 p53+/+; type: cell-based, human; conditions: 72 h
From the text: as §2, §1

[19] = tested on: HCT116 p53^-/- colon cancer cells; assay: MTT cytotoxicity, HCT116 p53-/-; type: cell-based, human
From the text: as §2, §1

Atg7^+/+ wild-type MEFs = assay: MTT cytotoxicity, Atg7 wild-type MEFs; type: cell-based, mouse; conditions: 72 h
From the text: as §2, with “All media were supplemented with 10% fetal bovine serum and antibiotics penicillin (50 U/ml) and streptomycin (50 μg/ml; Invitrogen, Paisley, Scotland, UK). All cell cultures were incubated at 37°C in a 5% humidified CO2 incubator.” left out
(§3) All tested compounds were dissolved in DMSO at a final concentration of 50 mmol/L and stored at −20°C before use. Cytotoxicity was assessed by using the 3-(4,5-dimethylthiazol-2-yl)-2, 5-diphenyltetrazolium bromide (MTT) (5.0 mg/ml) assay as previously described. […] A570 nm was then determined in each well on the next day. The percentage of cell viability was calculated using the following formula: Cell viability (%) = Atreated/Acontrol × 100. […]

Atg7^−/− deficient MEFs = assay: MTT cytotoxicity, Atg7 deficient MEFs; type: cell-based, mouse; conditions: 72 h
From the text: as §2, with “All media were supplemented with 10% fetal bovine serum and antibiotics penicillin (50 U/ml) and streptomycin (50 μg/ml; Invitrogen, Paisley, Scotland, UK). All cell cultures were incubated at 37°C in a 5% humidified CO2 incubator.” left out
as §3

HeLa cancer cells = assay: Flow cytometry cell-cycle analysis; type: cell-based; conditions: 24 h, propidium iodide flow cytometry
From the text: Cobalt complex 2-treated cells were harvested and analysed by flow cytometry using propidium iodide staining (BD Biosciences, San Jose, CA, USA) according to the manufacturer instructions. Cell population in different phase of cell cycle were quantitatively counted by a flow cytometer (BD FACSAria III, San Jose, CA, USA).

H1299 lung cancer cells = assay: Cell invasion assay (ECMatrix chamber); type: cell-based, human; conditions: H1299, 72 h, sub-lethal doses, OD 560 nm
Procedure: The H1299 cancer cell invasion assay was performed in a Cell Invasion Chamber, a 24-well tissue culture plate with cell culture inserts that contain an 8 μm pore size polycarbonate membrane over a thin layer of dried ECMatrix^TM (CHEMICON). H1299 cells (15000 cells/well) were re-suspended in serum-free medium and incubated in an invasion chamber insert with different concentrations of cobalt complex 2 for 72 hours, while the lower chamber contained medium with 10% FBS. The cells invaded through the ECM layer to the bottom of the polycarbonate membrane were labelled with Cell Stain provided in the kit for 20 min at room temperature. The non-invading cells were gently removed from the interior of the inserts by using a cotton-tipped swab. The number of invaded cells was counted through the microscope and quantified by dissolving stained cells in 10% acetic acid (200 μL/well). The colorimetric reading of the solute mixture was determined by spectrophotometer at OD 560 nm.

For `Cc1ccnc(-c2cc(C)ccn2)c1.Cc1ccnc(-c2cc(C)ccn2)c1.Cc1ccnc(-c2cc(C)ccn2)c1.F[P-](F)(F)(F)(F)F.F[P-](F)(F)(F)(F)F.F[P-](F)(F)(F)(F)F.[Co+3]` [complex 2, [Co^III(4,4’-Me2-bpy)3](PF6)3], the IC50 [1] was 11.9 µM, the IC50 [2] was 6.03 µM and the IC50 [3] was 2.84 µM. For the same molecule, the IC50 [4] was 8.84 µM, the IC50 [5] was 7.86 µM and the IC50 [6] was 3.39 µM. It also gave an IC50 [7] of 5.44 µM, an IC50 [8] of 3.7 µM and an IC50 [9] of 13.2 µM. The IC50 [10] was 4 µM, the IC50 ([11]; HCT-8 taxol-resistant, MTT, 72 h) was 1.22 µM and the “Resistant Factor, HCT-8” value ([11]; IC50 of taxol-resistant cells over IC50 of taxol-sensitive cells, HCT-8) was 0.36. For the same molecule, the IC50 [12] was 11.5 µM, the IC50 ([13]; A549 taxol-resistant, MTT, 72 h) was 2.85 µM and the “Resistant Factor, A549” value ([13]; IC50 of taxol-resistant cells over IC50 of taxol-sensitive cells, A549) was 0.25. For the same molecule, the IC50 ([14]; A2780 cisplatin-resistant, MTT, 72 h) was 10.7 µM, the “Resistant Factor, A2780” value ([14]; cisplatin-resistant over cisplatin-sensitive IC50, A2780) was 0.87 and the IC50 [15] was 11.1 µM. The IC50 [16] was 7.62 µM, the IC50 ([17]; C13 (cisplatin-resistant), MTT, 72 h, read-out: IC50 value, cisplatin-resistant cancer, C13) was 7.59 µM and the “Resistant Factor, OV2008/C13 pair” value ([17]; C13 (resistant) IC50 over OV2008 (sensitive) IC50) was 1.0. The IC50 [18] was 15.4 µM, the IC50 ([19]; HCT116 p53-/-, MTT, 72 h) was 9.07 µM and the “Resistant Factor, HCT116 p53-/- vs p53+/+” value ([19]; IC50 p53-/- over IC50 p53+/+) was 0.59. The IC50 (Atg7^+/+ wild-type MEFs) was 4.84 µM, the IC50 (Atg7^−/− deficient MEFs) was 14 µM and the “effect on cell cycle progression, high concentration” value (HeLa cancer cells; high concentration) was “arrest HeLa cancer cell in S-phase”. The “effect on cell cycle progression, low concentration” value (HeLa cancer cells; low concentration) was “negligible effect on cell cycle progression” and the “cell invasion (absorbance signal of invaded cells)” value (H1299 lung cancer cells) was “dose-dependently decrease the absorbance signal”.
